According to US20230406865A1, “CRYSTAL FORM OF FREE BASE OF INHIBITOR CONTAINING BICYCLIC RING DERIVATIVE AND PREPARATION METHOD AND APPLICATION OF CRYSTAL FORM” (SHANGHAI HANSOH BIOMEDICAL CO., LTD., priority 2020, published 2023):
pIC50: −log10 of the molar value.

How the values were obtained:
RET M918T = target: T1, RET M918T (Homo sapiens, UniProt P07949, M918T); assay: HTRF kinase activity inhibition, RET M918T; type: biochemical; details: ATP at Km
T1 construct: purchased Carna 08-508
From the text: 2.2 Experimental Reagents: • RET enzyme was purchased from Carna Company, and the article number was 08-159; • RET M918T enzyme was purchased from Carna Company, and the article number was 08-508; • KIF5B-RET was purchased from SignalChem Company, the article number was R02-19FG-05; • CCDC6-RET was purchased from SignalChem Company, the article number was R02-19BG-05; • RET V804M enzyme was purchased from Thermofisher Company, and the article number was PV6223; • RET V804L enzyme was purchased from Thermofisher Company, and the article number was PV4397; • HTRF KinEASE-TK kit was purchased from Cisbio Company, and the article number was 62TK0PEC; • ATP was purchased from Thermofisher Company, and the article number was PV3227; • 384-well plate was purchased from PerkinElmer Company, and the article number was 6007290.
In this experiment, a homogeneous time-resolved fluorescence (HTRF) method was used for the detection of compounds on RET kinase activity.

RET kinase = target: T2, RET kinase (Homo sapiens, UniProt P07949); assay: HTRF kinase activity inhibition, RET wild-type; type: biochemical; details: ATP at Km
T2 construct: purchased Carna 08-159
T2 sequence (P07949 29-1114): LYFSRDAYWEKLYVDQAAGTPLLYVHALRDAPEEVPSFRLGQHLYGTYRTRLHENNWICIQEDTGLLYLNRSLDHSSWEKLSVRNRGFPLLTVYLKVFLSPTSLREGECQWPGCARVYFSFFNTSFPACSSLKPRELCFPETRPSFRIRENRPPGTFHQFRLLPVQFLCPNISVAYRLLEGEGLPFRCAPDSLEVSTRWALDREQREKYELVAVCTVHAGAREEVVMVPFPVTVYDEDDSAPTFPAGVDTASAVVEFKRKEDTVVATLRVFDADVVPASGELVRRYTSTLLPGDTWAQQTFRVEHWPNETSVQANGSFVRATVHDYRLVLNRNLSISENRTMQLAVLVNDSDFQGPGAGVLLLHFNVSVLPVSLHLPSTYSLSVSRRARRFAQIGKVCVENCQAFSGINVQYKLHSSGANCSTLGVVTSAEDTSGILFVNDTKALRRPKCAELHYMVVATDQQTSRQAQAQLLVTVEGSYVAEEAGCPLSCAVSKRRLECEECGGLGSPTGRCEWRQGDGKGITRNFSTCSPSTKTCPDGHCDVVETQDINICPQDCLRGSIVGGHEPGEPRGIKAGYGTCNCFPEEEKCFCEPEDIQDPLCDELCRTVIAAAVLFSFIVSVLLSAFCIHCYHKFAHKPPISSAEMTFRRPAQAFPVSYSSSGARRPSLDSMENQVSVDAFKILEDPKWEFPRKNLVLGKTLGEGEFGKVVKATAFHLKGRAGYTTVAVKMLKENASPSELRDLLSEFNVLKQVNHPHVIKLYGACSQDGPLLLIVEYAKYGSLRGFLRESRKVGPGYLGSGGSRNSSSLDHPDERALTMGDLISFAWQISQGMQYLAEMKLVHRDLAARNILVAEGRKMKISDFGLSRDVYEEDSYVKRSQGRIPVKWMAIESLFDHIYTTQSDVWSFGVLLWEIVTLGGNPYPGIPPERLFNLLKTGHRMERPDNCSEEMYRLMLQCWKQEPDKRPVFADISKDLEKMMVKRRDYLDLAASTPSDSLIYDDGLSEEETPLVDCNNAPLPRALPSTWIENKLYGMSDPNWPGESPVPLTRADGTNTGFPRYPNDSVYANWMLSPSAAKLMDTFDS
Summary of the method: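 HTRF (KinEASE-TK) kinase assay with recombinant RET wild-type, RET V804M, RET V804L and KIF5B-RET enzymes plus ATP.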

KDR kinase = target: T3, KDR kinase (Homo sapiens, UniProt P35968); assay: HTRF kinase activity inhibition, KDR; type: biochemical; details: for pIC50: HTRF, ATP at Km; for Ratio (KDR/RET): KDR IC50 / RET IC50
T3 construct: purchased Carna 08-191
T3 sequence (P35968 20-1356): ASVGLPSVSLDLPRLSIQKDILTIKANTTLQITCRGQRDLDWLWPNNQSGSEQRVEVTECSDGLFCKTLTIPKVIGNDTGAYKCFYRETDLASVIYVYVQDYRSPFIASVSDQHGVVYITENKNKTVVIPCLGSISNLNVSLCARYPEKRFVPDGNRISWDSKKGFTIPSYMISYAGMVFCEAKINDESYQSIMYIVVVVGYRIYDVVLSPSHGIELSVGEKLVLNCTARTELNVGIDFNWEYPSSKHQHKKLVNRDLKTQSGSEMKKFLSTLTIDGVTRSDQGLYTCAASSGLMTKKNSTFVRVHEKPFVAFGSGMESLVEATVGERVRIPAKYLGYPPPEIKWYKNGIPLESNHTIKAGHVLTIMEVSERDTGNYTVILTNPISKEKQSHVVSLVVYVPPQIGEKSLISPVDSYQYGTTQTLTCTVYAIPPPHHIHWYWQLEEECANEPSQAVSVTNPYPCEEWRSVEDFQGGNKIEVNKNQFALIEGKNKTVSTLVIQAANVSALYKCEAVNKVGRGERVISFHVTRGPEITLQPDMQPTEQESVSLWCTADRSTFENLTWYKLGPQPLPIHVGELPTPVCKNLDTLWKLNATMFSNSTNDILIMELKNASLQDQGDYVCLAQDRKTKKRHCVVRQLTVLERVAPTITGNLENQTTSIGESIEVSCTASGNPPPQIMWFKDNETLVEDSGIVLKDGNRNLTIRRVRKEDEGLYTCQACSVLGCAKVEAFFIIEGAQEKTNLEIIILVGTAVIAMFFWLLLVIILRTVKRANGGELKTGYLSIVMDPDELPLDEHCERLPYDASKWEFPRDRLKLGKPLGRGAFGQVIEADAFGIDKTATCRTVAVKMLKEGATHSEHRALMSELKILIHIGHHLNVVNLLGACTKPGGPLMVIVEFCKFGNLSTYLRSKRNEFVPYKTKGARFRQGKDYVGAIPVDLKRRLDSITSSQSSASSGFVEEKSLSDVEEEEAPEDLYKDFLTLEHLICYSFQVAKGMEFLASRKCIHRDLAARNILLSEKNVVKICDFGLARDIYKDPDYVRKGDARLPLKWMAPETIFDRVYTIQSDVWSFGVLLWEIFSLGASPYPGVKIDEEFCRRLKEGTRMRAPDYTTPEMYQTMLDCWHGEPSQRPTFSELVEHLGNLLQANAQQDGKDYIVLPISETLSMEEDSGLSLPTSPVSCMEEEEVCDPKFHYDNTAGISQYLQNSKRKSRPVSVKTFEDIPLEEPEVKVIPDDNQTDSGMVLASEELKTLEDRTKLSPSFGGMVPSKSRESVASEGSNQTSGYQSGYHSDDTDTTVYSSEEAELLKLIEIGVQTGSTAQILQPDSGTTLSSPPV
Summary of the method: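 Inhibition of KDR kinase activity measured by homogeneous time-resolved fluorescence with a tyrosine-kinase KinEASE substrate kit and ATP.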

[1] = tested on: TT cells (MTC, RET C634W); assay: Inhibition of proliferation of TT cells (CellTiter-Glo, 72 h); type: cell-based; details: Homo sapiens
Summary of the method: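 TT cells seeded overnight, then exposed to compound dilutions for 72 h at 37 °C, 5% CO2, with a solvent control. Viability read by CellTiter-Glo luminescence; IC50 from nonlinear regression of inhibition rate versus concentration.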

Ba/F3 KIF5B-RET cells = target: T4, Ba/F3 KIF5B-RET cells (Homo sapiens, UniProt P07949); assay: Inhibition of proliferation of Ba/F3 KIF5B-RET cells (CellTiter-Glo); type: cell-based; details: 72 to 144 hours
T4 construct: fused on or other part: P33176 (Kinesin-1 heavy chain)
T4 sequence (P07949 whole entry, change not shown, the tested form may be a part): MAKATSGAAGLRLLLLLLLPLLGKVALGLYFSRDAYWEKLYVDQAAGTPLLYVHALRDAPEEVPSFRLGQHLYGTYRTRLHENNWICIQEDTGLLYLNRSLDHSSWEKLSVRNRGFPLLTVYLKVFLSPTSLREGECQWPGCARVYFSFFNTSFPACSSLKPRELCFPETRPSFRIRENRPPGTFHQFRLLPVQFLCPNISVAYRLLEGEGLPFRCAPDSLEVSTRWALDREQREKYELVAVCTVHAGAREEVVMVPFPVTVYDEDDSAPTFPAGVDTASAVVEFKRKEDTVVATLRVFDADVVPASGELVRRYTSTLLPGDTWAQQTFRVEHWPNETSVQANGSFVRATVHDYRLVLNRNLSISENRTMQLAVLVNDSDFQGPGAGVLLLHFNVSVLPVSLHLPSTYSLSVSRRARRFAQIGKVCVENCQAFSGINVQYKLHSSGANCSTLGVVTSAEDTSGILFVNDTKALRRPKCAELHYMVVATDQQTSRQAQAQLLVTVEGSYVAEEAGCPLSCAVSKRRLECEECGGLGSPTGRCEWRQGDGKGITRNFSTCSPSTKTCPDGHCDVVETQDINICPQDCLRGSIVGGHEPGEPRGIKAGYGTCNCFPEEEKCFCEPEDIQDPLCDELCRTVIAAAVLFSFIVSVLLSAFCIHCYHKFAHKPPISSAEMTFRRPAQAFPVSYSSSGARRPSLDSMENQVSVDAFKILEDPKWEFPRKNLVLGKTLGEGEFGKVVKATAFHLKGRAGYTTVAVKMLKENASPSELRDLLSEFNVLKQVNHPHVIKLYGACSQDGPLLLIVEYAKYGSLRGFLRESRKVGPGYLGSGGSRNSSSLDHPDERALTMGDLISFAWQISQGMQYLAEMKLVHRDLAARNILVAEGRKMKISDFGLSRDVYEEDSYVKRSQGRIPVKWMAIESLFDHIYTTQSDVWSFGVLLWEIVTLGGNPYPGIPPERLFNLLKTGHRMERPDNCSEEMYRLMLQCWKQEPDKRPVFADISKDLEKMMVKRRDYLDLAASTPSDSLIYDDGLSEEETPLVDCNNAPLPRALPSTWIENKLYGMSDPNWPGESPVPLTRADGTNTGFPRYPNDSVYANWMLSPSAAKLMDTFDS
Summary of the method: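 Cells plated overnight, then exposed to compound dilutions in DMSO/medium at 37° C, 5% CO2 for 72 to 144 hours. Viability read by CellTiter-Glo luminescence; IC50 from inhibition rates fitted by nonlinear regression.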

[2] = Balb/C mouse pharmacokinetics, oral 5 mg/kg; type: in vivo, Balb/C mice; details: male, p.o. 5 mg/kg, plasma; for MRT: read-out: Average residence time MRT; for Cmax: read-out: Blood concentration Cmax; for AUC(0-t): read-out: Curve area AUC0-t; for AUC(0-inf): read-out: Curve area AUC0-∞; for half-life: read-out: Half-life t1/2 (converted); for Tmax: read-out: Peak time tmax
Summary of the method: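 Male Balb/C mice (6 per compound) were fasted overnight and dosed in 0.5% CMC-Na (1% Tween80) solution or suspension. EDTA-K2 plasma was sampled at 0, 0.5, 1, 2, 4, 6, 8 and 24 h. Compound levels were measured by LC/MS/MS after acetonitrile precipitation, and PK parameters were derived from the plasma profiles.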

[3] = tested on: subcutaneous transplanted tumor of Ba/F3 KIF5B-RET cells; assay: Tumor suppression on Ba/F3 KIF5B-RET transplanted tumor model; type: in vivo, BALB/c nude mice
Method: Ba/F3 KIF5B-RET cells were removed from the cell bank, resuscitated and added to RPMI1640 medium (RPMI1640+10% FBS+1% Glu+1% P/S), then cultured in a CO2 incubator (incubator temperature was 37° C., CO2 concentration was 5%), and when the cell number expanded to the required number for in vivo inoculation, Ba/F3 KIF5B-RET cells were collected. The cells were counted with an automatic cell counter, resuspended with PBS according to the count results, made into a cell suspension (density was 2×10^7/mL), and placed in an ice box for use.
Female BALB/c nude mice aged 6-8 weeks were used, weighing about 18-22 g. Mice were reared in SPF animal room, and were reared in a single cage with 5 mice in each cage. All cages, bedding and water were sterilized at high temperature before use, and all animals were allowed to eat and drink freely. Nude mice were labeled with disposable universal ear tags for mice and rats before the start of the experiment, and the skin of the inoculation site was disinfected with 75% medical alcohol before inoculation. 0.1 mL (containing 2*10^6 cells) of Ba/F3 KIF5B-RET cells were inoculated subcutaneously on the right back of each mouse. Group administration was initiated when the tumor volume reached 60-200 mm^3, with 5 mice in each group. Each test compound was administered orally twice a day for 14 days. The tumor volume and the weight of mice were measured twice a week, and the tumor TGI (%) was calculated.
The tumor volume (mm^3) was calculated as V=0.5*D*d*d, where D and d were the long and short diameters of the tumor, respectively.
When there was no tumor regression, TGI (%)=[(1-(mean tumor volume at the end of the administration in a treatment group−mean tumor volume at the start of administration in the treatment group))/(mean tumor volume at the end of treatment in the solvent control group−mean tumor volume at the start of treatment in the solvent control group)]×100%.
When there was tumor regression, TGI (%)=[1-(mean tumor volume at the end of administration in a treatment group−mean tumor volume at the beginning of administration in the treatment group)/mean tumor volume at the beginning of administration in the treatment group]×100%.

T1 sequence (P07949 29-1114 M918T): as the sequence (P07949 29-1114) above, with M890T counted along it

| SMILES | pIC50 (RET M918T) | pIC50 (RET kinase) | pIC50 (KDR kinase) | Ratio (KDR/RET) (KDR kinase) | pIC50 [1] | pIC50 (Ba/F3 KIF5B-RET cells) | MRT [2] [h] | Cmax [2] [µg/mL] | AUC(0-t) [2] [µg·h/mL] | AUC(0-inf) [2] [µg·h/mL] | half-life [2] [h] | Tmax [2] [h] | Tumor volume (Mean ± SD) Day 0 ([3]; 10 mg/kg oral twice a day) [mm^3] | TGI (%) Day 14 ([3]; 10 mg/kg oral twice a day) [%] | Tumor volume (Mean ± SD) Day 14 ([3]; 10 mg/kg oral twice a day) [mm^3] | Tumor volume (Mean ± SD) Day 0 ([3]; 30 mg/kg oral twice a day) [mm^3] | TGI (%) Day 14 ([3]; 30 mg/kg oral twice a day) [%] | Tumor volume (Mean ± SD) Day 14 ([3]; 30 mg/kg oral twice a day) [mm^3] |
| --- | --- | --- | --- | --- | --- | --- | --- | --- | --- | --- | --- | --- | --- | --- | --- | --- | --- | --- |
| COc1ccc(CN2C3CC2CN(c2ccc(-c4cc(C#CC(C)(C)N)cn5ncc(C#N)c45)cn2)C3)cn1 [Embodiment 17, 6-(3-Amino-3-methylbut-1-yn-1-yl)-4-(6-(6-((6-methoxypyridin-3-yl)methyl)-3,6-diazabicyclo[3.1.1]heptan-3-yl)pyridin-3-yl)pyrazolo[1,5-a]pyridine-3-carbonitrile] | 9.42 | 9.41 | 8.09 | 21 | 7.88 | – | – | – | – | – | – | – | – | – | – | – | – | – |
| COc1ccc(CN2C3CC2CN(c2ccc(-c4cc(N5CC(C(C)(C)O)C5)cn5ncc(C#N)c45)cn2)C3)cn1 [Embodiment 7, 6-(3-(2-Hydroxypropan-2-yl)azetidin-1-yl)-4-(6-(6-((6-methoxypyridin-3-yl)methyl)-3,6-diazabicyclo[3.1.1]heptan-3-yl)pyridin-3-yl)pyrazolo[1,5-a]pyridine-3-carbonitrile] | 8.97 | 9.16 | 7.96 | 16 | 7.96 | 7.89 | 3.76 | 3.28 | 13.8 | 13.8 | 2.18 | 0.5 | 100.80 ± 31.28 | 90.82 | 232.46 ± 133.65 | – | – | – |
| COc1ccc(CN2C3CC2CN(c2ccc(-c4cc(C#CC(C)(C)O)cn5ncc(C#N)c45)cn2)C3)cn1 [Embodiment 8, 6-(3-Hydroxy-3-methylbut-1-yn-1-yl)-4-(6-(6-((6-methoxypyridin-3-yl)methyl)-3,6-diazabicyclo[3.1.1]heptan-3-yl)pyridin-3-yl)pyrazolo[1,5-a]pyridine-3-carbonitrile] | 9.17 | 9.32 | 7.80 | 34 | 7.77 | 7.92 | 4.91 | 3.71 | 21.4 | 21.5 | 3.37 | 0.5 | – | – | – | – | – | – |
| C#C[C@](C)(O)COc1cc(-c2ccc(N3CC4CC(C3)N4Cc3cnc(OC)c(F)c3)nc2)c2c(C#N)cnn2c1 [Embodiment 65, 4-(6-(6-((5-Fluoro-6-methoxypyridin-3-yl)methyl)-3,6-diazabicyclo[3.1.1]heptan-3-yl)pyridin-3-yl)-6-(((S)-2-hydroxy-2-methylbut-3-yn-1-yl)oxy)pyrazolo[1,5-a]pyridine-3-carbonitrile] | – | 9.48 | 7.84 | 44 | 7.90 | 8.15 | 5.24 | 2.4 | 20.2 | 20.3 | 3.05 | 2 | 100.40 ± 29.77 | 87.71 | 276.69 ± 106.21 | – | – | – |
| CC1(NC(=O)c2ncccc2Cl)CCN(c2ccc(-c3cc(OCC4(C#N)CC4)cn4ncc(C#N)c34)cn2)CC1 [Embodiment 92, 3-Chloro-N-(1-(5-(3-cyano-6-((1-cyanocyclopropyl)methoxy)pyrazolo[1,5-a]pyridin-4-yl)pyridin-2-yl)-4-methylpiperidin-4-yl)picolinamide] | – | 9.07 | 6.73 | 218 | 7.56 | 7.49 | 2.85 | 9.34 | 24.5 | 24.5 | 1.7 | 0.5 | – | – | – | 133.41 ± 18.82 | 126.35 | 98.26 ± 33.71 |
| COc1ncc(CN2C3CC2CN(c2ccc(-c4cc(N5CC(C(C)(C)O)C5)cn5ncc(C#N)c45)cn2)C3)cc1F [Embodiment 31, 4-(6-(6-((5-Fluoro-6-methoxypyridin-3-yl)methyl)-3,6-diazabicyclo[3.1.1]heptan-3-yl)pyridin-3-yl)-6-(3-(2-hydroxypropan-2-yl)azetidin-1-yl)pyrazolo[1,5-a]pyridine-3-carbonitrile] | 9.33 | 9.12 | 7.64 | 30 | 8.18 | – | 4.71 | 3.12 | 18.9 | 18.9 | 2.66 | 0.5 | – | – | – | – | – | – |
| CC(C)(O)C#Cc1cc(-c2ccc(N3CCC(C)(NC(=O)c4ncccc4Cl)CC3)nc2)c2c(C#N)cnn2c1 [Embodiment 85, 3-Chloro-N-(1-(5-(3-cyano-6-(3-hydroxy-3-methylbut-1-yn-1-yl)pyrazolo[1,5-a]pyridin-4-yl)pyridin-2-yl)-4-methylpiperidin-4-yl)picolinamide] | 9.10 | 9.42 | 7.34 | 122 | 8.03 | – | – | – | – | – | – | – | – | – | – | – | – | – |
| C#CC(C)(O)COc1cc(-c2ccc(N3CC4CC(C3)N4Cc3ccc(OC)nc3)nc2)c2c(C#N)cnn2c1 (stereo not shown) [Embodiment 62, 6-((2-Hydroxy-2-methylbut-3-yn-1-yl)oxy)-4-(6-(6-((6-methoxypyridin-3-yl)methyl)-3,6-diazabicyclo[3.1.1]heptan-3-yl)pyridin-3-yl)pyrazolo[1,5-a]pyridine-3-carbonitrile] | – | 9.32 | 7.45 | 73 | – | – | 4.07 | 2.82 | 13.8 | 13.8 | 2.4 | 0.5 | 100.24 ± 27.85 | 89.74 | 247.52 ± 85.65 | – | – | – |
